What was measured:
[1] = target: Epidermal growth factor receptor (Homo sapiens, UniProt P00533); test: Inhibition of recombinant wildtype N-terminal GST-tagged human EGFR kinase domain (696 to end residues) extracted from baculovirus infect Sf21 insect cells incubated for 1 hrs by spectrophotometric analysis
[2] = target: Epidermal growth factor receptor (Homo sapiens, UniProt P00533, L858R/T790M); test: Inhibition of recombinant N-terminal GST-tagged human EGFR T790M/L858R mutant (696 to end residues) extracted from baculovirus infect Sf21 insect cells incubated for 1 hrs by spectrophotometric analysis
[3] = target: Epidermal growth factor receptor (Homo sapiens, UniProt P00533, C797S/EX19DEL/T790M); test: Inhibition of recombinant N-terminal GST-tagged human EGFR 19del/T790M/C797S mutant (668 to end residues) extracted from Sf9 insect cells incubated for 1 hrs by spectrophotometric analysis; assay type: cell-free
[4] = Antiproliferative activity against mouse BaF3 cells assessed as inhibition of cell proliferation incubated for 72 hrs by CCK-8 assay; assay type: toxicity, cell-based
[5] = Induction of apoptosis in mouse BaF3 cells harboring EGFR 19del/T790M/C797S mutant assessed as early apoptotic cells at 30 nM incubated for 48 hrs by Annexin V-FITC/PI staining based flow cytometric analysis (reference value: 0.36 %); assay type: functional
[6] = Induction of apoptosis in mouse BaF3 cells harboring EGFR 19del/T790M/C797S mutant assessed as late apoptotic cells at 30 nM incubated for 48 hrs by Annexin V-FITC/PI staining based flow cytometric analysis (reference value: 1.47 %); assay type: functional
[7] = Induction of apoptosis in mouse BaF3 cells harboring EGFR 19del/T790M/C797S mutant assessed as early apoptotic cells at 100 nM incubated for 48 hrs by Annexin V-FITC/PI staining based flow cytometric analysis (reference value: 0.36 %); assay type: functional
[8] = Induction of apoptosis in mouse BaF3 cells harboring EGFR 19del/T790M/C797S mutant assessed as late apoptotic cells at 100 nM incubated for 48 hrs by Annexin V-FITC/PI staining based flow cytometric analysis (reference value: 1.47 %); assay type: functional
[9] = Induction of apoptosis in mouse BaF3 cells harboring EGFR 19del/T790M/C797S mutant assessed as early apoptotic cells at 300 nM incubated for 48 hrs by Annexin V-FITC/PI staining based flow cytometric analysis (reference value: 0.36 %); assay type: functional
[10] = Induction of apoptosis in mouse BaF3 cells harboring EGFR 19del/T790M/C797S mutant assessed as late apoptotic cells at 300 nM incubated for 48 hrs by Annexin V-FITC/PI staining based flow cytometric analysis (reference value: 1.47 %); assay type: functional
[11] = Induction of apoptosis in mouse BaF3 cells harboring EGFR 19del/T790M/C797S mutant assessed as early apoptotic cells at 1000 nM incubated for 48 hrs by Annexin V-FITC/PI staining based flow cytometric analysis (reference value: 0.36 %); assay type: functional
[12] = Induction of apoptosis in mouse BaF3 cells harboring EGFR 19del/T790M/C797S mutant assessed as late apoptotic cells at 1000 nM incubated for 48 hrs by Annexin V-FITC/PI staining based flow cytometric analysis (reference value: 1.47 %); assay type: functional
BaF3 [13] = test: Antitumor activity against mouse BaF3 cells harboring 19del/T790M/C797S mutant implanted in female BALB/c nu/nu mouse assessed as tumor growth inhibition at 20 mg/kg, po administered once daily for 9 days relative to control; assay type: functional; settings: BaF3, 216 h, time 9 day, read-out: TGI
BaF3 [14] = test: cells; settings: Mus musculus, BaF3, 72 h
BaF3 [15] = test: cells; settings: Mus musculus, BaF3, 72 h; remark: listed apart in the source
cells = settings: Homo sapiens, PC9-OR, 72 h
A-431 = test: cells; settings: Homo sapiens, A-431, 72 h
Description: Antiproliferative activity against human A-431 cells harboring wildtype EGFR assessed as inhibition of cell proliferation measured after 72 hrs by SRB assay

[16] = Induction of apoptosis in mouse BaF3 cells harboring EGFR 19del/T790M/C797S mutant assessed as early apoptotic cells at 30 nM incubated for 48 hrs by Annexin V-FITC/PI staining based flow cytometric analysis (reference value: 2.48 %); assay type: functional
[17] = Induction of apoptosis in mouse BaF3 cells harboring EGFR 19del/T790M/C797S mutant assessed as late apoptotic cells at 30 nM incubated for 48 hrs by Annexin V-FITC/PI staining based flow cytometric analysis (reference value: 1.75 %); assay type: functional
[18] = Induction of apoptosis in mouse BaF3 cells harboring EGFR 19del/T790M/C797S mutant assessed as early apoptotic cells at 300 nM incubated for 48 hrs by Annexin V-FITC/PI staining based flow cytometric analysis (reference value: 2.48 %); assay type: functional
[19] = Induction of apoptosis in mouse BaF3 cells harboring EGFR 19del/T790M/C797S mutant assessed as early apoptotic cells at 100 nM incubated for 48 hrs by Annexin V-FITC/PI staining based flow cytometric analysis (reference value: 2.48 %); assay type: functional
[20] = Induction of apoptosis in mouse BaF3 cells harboring EGFR 19del/T790M/C797S mutant assessed as late apoptotic cells at 100 nM incubated for 48 hrs by Annexin V-FITC/PI staining based flow cytometric analysis (reference value: 1.75 %); assay type: functional
[21] = Induction of apoptosis in mouse BaF3 cells harboring EGFR 19del/T790M/C797S mutant assessed as late apoptotic cells at 300 nM incubated for 48 hrs by Annexin V-FITC/PI staining based flow cytometric analysis (reference value: 1.75 %); assay type: functional
[22] = Induction of apoptosis in mouse BaF3 cells harboring EGFR 19del/T790M/C797S mutant assessed as early apoptotic cells at 1000 nM incubated for 48 hrs by Annexin V-FITC/PI staining based flow cytometric analysis (reference value: 2.48 %); assay type: functional
[23] = Induction of apoptosis in mouse BaF3 cells harboring EGFR 19del/T790M/C797S mutant assessed as late apoptotic cells at 1000 nM incubated for 48 hrs by Annexin V-FITC/PI staining based flow cytometric analysis (reference value: 1.75 %); assay type: functional
[24] = target: Epidermal growth factor receptor (Homo sapiens, UniProt P00533, C797S/L858R/T790M); test: Inhibition of recombinant C-terminal His-tagged/N-terminal GST-tagged human EGFR T790M/C797S/L858R mutant (668 to 1210 residues) extracted from baculovirus infected Sf9 insect cells incubated for 1 hrs by spectrophotometric analysis
Chain of Epidermal growth factor receptor (Homo sapiens, UniProt P00533, C797S/L858R/T790M) (P00533 25-1210 T790M/C797S/L858R limits assumed): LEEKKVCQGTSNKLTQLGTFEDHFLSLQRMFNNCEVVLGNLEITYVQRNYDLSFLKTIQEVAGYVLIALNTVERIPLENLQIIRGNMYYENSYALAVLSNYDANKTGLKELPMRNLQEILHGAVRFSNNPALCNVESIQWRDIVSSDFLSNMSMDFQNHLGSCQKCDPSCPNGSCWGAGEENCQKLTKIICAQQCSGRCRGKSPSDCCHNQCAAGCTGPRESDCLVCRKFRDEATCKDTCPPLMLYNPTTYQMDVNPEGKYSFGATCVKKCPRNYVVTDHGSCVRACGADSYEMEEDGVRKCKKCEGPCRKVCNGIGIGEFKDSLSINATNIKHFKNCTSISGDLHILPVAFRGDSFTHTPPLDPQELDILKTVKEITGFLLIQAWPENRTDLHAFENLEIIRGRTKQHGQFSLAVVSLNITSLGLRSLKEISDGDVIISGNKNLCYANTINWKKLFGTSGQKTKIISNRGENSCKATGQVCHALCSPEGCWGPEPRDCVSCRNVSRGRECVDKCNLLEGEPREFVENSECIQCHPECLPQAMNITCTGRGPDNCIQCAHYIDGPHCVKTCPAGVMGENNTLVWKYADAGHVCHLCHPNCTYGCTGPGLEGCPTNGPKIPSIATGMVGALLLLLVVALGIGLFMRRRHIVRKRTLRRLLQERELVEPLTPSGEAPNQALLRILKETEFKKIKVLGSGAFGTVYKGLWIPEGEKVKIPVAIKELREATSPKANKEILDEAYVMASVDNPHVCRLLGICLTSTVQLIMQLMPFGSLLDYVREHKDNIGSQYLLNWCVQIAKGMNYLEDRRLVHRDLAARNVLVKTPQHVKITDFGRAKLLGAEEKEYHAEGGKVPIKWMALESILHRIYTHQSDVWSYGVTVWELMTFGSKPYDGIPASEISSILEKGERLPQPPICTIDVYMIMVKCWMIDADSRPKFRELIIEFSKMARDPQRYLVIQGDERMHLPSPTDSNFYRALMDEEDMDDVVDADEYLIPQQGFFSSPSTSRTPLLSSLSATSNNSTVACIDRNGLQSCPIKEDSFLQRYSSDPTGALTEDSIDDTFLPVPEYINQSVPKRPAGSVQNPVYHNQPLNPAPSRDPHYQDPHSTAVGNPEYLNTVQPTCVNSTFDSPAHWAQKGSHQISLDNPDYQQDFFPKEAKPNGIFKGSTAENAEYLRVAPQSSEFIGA

Chain of Epidermal growth factor receptor (Homo sapiens, UniProt P00533) (P00533 whole entry, the tested form may be a part): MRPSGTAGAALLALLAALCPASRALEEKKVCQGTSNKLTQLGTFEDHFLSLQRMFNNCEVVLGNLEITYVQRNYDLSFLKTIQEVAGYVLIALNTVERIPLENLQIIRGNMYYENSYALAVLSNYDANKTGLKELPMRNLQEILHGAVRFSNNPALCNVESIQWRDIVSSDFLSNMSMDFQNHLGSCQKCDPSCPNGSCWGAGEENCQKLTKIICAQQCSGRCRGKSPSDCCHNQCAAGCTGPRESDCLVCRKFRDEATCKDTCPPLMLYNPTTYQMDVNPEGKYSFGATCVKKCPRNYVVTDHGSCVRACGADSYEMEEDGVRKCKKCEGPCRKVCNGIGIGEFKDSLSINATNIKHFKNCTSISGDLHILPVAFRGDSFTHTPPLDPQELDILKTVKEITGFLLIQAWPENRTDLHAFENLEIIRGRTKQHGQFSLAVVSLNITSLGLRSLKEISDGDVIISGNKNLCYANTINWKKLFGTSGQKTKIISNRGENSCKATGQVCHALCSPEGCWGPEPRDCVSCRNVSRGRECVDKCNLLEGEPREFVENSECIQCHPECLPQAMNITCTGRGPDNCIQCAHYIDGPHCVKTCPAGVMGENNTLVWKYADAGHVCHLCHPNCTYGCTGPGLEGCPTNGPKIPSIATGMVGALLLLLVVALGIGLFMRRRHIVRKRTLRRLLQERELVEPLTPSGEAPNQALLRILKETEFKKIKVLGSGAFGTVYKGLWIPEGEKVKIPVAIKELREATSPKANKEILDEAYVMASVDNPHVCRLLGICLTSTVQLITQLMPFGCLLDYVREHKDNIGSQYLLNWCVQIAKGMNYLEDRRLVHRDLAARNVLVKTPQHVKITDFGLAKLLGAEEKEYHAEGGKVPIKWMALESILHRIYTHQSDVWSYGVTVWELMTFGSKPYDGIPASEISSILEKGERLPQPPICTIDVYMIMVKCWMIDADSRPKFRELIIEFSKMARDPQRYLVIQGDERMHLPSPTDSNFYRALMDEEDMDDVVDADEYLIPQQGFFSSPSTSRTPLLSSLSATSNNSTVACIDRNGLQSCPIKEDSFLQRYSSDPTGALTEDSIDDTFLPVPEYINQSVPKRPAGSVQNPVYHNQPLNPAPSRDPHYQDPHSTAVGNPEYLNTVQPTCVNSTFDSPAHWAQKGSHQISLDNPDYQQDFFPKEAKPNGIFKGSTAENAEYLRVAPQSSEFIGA
Chain of Epidermal growth factor receptor (Homo sapiens, UniProt P00533, C797S/EX19DEL/T790M) (P00533 whole entry, looked up, stated change not applied): as the sequence (P00533 whole entry, the tested form may be a part) above
Chain of Epidermal growth factor receptor (Homo sapiens, UniProt P00533, L858R/T790M) (P00533 25-1210 T790M/L858R limits assumed): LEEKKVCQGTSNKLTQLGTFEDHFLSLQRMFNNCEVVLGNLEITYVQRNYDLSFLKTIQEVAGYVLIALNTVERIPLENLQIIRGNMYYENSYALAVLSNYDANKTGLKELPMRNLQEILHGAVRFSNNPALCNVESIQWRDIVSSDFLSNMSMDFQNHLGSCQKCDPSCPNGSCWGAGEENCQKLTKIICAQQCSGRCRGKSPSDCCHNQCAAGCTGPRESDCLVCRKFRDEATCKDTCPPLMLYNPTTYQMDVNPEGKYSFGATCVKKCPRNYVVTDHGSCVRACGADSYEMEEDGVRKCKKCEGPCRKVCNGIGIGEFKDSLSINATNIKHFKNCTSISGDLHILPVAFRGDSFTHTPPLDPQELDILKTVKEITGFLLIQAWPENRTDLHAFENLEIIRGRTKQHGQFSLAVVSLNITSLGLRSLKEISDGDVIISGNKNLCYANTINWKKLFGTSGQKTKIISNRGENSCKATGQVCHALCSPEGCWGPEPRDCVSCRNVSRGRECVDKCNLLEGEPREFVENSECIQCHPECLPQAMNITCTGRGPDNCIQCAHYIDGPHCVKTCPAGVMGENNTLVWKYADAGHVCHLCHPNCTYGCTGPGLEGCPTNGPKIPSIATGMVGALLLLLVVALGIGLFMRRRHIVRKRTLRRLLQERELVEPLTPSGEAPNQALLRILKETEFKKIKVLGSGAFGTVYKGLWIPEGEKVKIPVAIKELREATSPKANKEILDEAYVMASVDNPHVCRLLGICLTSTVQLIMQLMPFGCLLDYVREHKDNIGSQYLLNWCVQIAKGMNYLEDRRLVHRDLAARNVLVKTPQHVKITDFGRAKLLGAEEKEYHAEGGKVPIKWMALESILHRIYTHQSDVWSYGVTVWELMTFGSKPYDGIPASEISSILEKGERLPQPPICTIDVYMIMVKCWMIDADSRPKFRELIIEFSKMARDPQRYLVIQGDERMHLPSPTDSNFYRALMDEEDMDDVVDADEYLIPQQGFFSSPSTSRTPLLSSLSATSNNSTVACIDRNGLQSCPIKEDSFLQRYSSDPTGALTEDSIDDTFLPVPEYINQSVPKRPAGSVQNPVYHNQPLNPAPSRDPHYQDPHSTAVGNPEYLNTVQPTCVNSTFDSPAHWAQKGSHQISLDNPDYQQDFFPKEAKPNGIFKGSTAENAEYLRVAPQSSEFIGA

IC50 (BaF3 [14]) [nM] | IC50 (BaF3 [15]) [nM] | IC50 (cells) [nM] | IC50 (A-431) [nM] | SMILES | IC50 [1] [nM] | IC50 [2] [nM] | IC50 [3] [nM] | IC50 at 72 h [4] [nM] | also measured
 |  |  |  | COc1cc(N(C)CCN(C)C)c2cc1Nc1nccc(n1)-c1cnn(c1)CCCCC(=O)N2 | > 1000 | > 1000 | > 1000 |  | 
100 | 176 | 94 | 302 | COc1cc(N2CCC(N3CCN(C)CC3)CC2)c(C)cc1Nc1ncc(Br)c(Nc2ccc3nccnc3c2P(C)(C)=O)n1 |  |  |  | 2040 | Activity [5]: 2.39%; Activity [6]: 1.98%; Activity [7]: 6.67%; Activity [8]: 3.84%; Activity [9]: 50.63%; Activity [10]: 18.4%; Activity [11]: 64.67%; Activity [12]: 22.63%; inhibition in vivo at 20 mg/kg (BaF3 [13]): 78.4%
41 | 313 | 38 | 158 | COc1cc(N2CCC(N3CCN(C)CC3)CC2)c2cc1Nc1ncc(C)c(n1)Nc1ccc(cc1P(C)(C)=O)OCCCn1cc-2cn1 |  |  |  | 2770 | 
 |  |  |  | COc1cc(N(C)CCN(C)C)c2cc1Nc1nccc(n1)-c1cc(C#N)n(c1)CCCCC(=O)N2 | > 1000 | > 1000 | > 1000 |  | 
1730 | 2090 | 1000 | > 10000 | COc1cc(N(C)CCN(C)C)c2cc1Nc1ncc(C)c(n1)Nc1ccc(cc1P(C)(C)=O)OCCCCCC2 |  |  |  | > 10000 | 
382 | 392 | 314 | 436 | COc1cc(N2CCC(N3CCN(C)CC3)CC2)ccc1Nc1ncc(Cl)c(Nc2ccccc2P(C)(C)=O)n1 [BRIGATINIB] |  |  |  | 2380 | Activity [16]: 2.4%; Activity [17]: 1.21%; Activity [18]: 4.25%; Activity [19]: 3.51%; Activity [20]: 1.3%; Activity [21]: 1.86%; Activity [22]: 32.44%; Activity [23]: 6.87%
174 | 394 | 104 | > 10000 | COc1cc(N(C)CCN(C)C)c2cc1Nc1ncc(C)c(n1)Nc1ccc(cc1P(C)(C)=O)OCCCn1cc-2cn1 |  |  |  | > 10000 | 
< 16 | 146 | 62 | 161 | COc1cc(N2CCN(C)CC2)c2cc1Nc1ncc(C)c(n1)Nc1ccc(cc1P(C)(C)=O)OCCCn1cc-2cn1 |  |  |  | 2250 | 
 |  |  |  | COc1cc(N(C)CCN(C)C)c2cc1Nc1ncc(C(=O)OC(C)C)c(n1)Nc1ccc(cc1P(C)(C)=O)OCCCCC(=O)N2 | > 1000 | > 1000 | > 1000 |  | IC50 [24]: > 1000 nM
> 10000 | > 10000 | 2330 | 4370 | COc1cc(N(C)CCN(C)C)c2cc1Nc1ncc(C)c(n1)Nc1ccc(cc1P(C)(C)=O)OCCCCC(=O)N2 |  |  |  | > 10000 | 
 |  |  |  | COc1cc(N(C)CCN(C)C)c2cc1Nc1nccc(n1)-c1cn(c3cc(P(C)(C)=O)ccc13)CCCCC(=O)N2 | > 1000 | > 1000 | > 1000 |  | 

SMILES | IC50 (BaF3 [14]) [nM] | IC50 (BaF3 [15]) [nM] | IC50 (cells) [nM] | IC50 (A-431) [nM] | IC50 [1] [nM] | IC50 [2] [nM] | IC50 [3] [nM] | IC50 at 72 h [4] [nM] | also measured
C=CC(=O)Nc1cc(Nc2nccc(-c3cn(C)c4ccccc34)n2)c(OC)cc1N(C)CCN(C)C [OSIMERTINIB] | 1550 | 1760 | 2600 | […] |  |  |  |  | 

From ChEMBL document CHEMBL6127132, “Design, Synthesis, and Biological Evaluation of Novel Diaminopyrimidine Macrocycles as Fourth Generation Reversible EGFR Inhibitors That Overcome Clinical Resistance to Osimertinib Mediated by C797S Mutation” (J Med Chem, 2024)
